Laboratory results reported in publication PMC8308585, “Design and Synthesis of Novel Thiazolo[5,4-d]pyrimidine Derivatives with High Affinity for Both the Adenosine A1 and A2A Receptors, and Efficacy in Animal Models of Depression” (Pharmaceuticals, 2021).
Read-outs that look alike come from different tables or passages of the source.

Experiments:
[1] = molecular target: T1, human A2A AR (Homo sapiens, UniProt P29274); assay: Radioligand binding, displacement of [3H]-NECA at hA2A AR in CHO cells;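 note: competition binding on membranes from CHO cells stably transfected with human A2A receptor, binding curves fitted by nonlinear regression in GraphPad Prism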
T1 construct: expressed in transfected cells; host or cells: CHO cells
Description: (§2) CHO cells, stably expressing hARs, were grown adherently and maintained in Dulbecco’s modified Eagle’s medium (DMEM) with nutrient mixture F12 supplemented with 10% fetal bovine serum (FBS), penicillin (100 µg/mL), streptomycin (100 µg/mL), sodium pyruvate (1 mM), and geneticin (0.1 mg/mL).
(§3) Briefly, cells were homogenized in cold lysis buffer (5 mM Tris HCl, 2 mM EDTA, pH 7.4), centrifuged at low speed spin for 10 min, and subsequently, the supernatant was spun at 37,000 rpm. Membrane pellet was resuspended in the specific buffer and stored at −80 °C.

[2] = molecular target: T2, hA3 AR (Homo sapiens, UniProt P0DMS8); assay: Radioligand binding, displacement of [3H]-HEMADO at hA3 AR in CHO cells; conditions: displacement of specific [3H]-HEMADO binding, mean ± SEM
T2 construct: expressed in transfected cells; host or cells: CHO cells
T2 sequence (P0DMS8 1-318): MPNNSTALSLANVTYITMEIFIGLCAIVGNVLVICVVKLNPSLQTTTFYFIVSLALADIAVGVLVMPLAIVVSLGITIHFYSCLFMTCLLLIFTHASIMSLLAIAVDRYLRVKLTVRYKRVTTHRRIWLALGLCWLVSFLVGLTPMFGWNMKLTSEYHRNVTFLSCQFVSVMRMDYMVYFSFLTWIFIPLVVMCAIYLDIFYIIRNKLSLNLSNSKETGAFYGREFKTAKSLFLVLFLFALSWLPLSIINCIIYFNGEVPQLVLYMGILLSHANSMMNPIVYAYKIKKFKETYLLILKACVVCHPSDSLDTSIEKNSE
Description: as §2, §3

[3] = molecular target: T3, human A1 AR (Homo sapiens, UniProt P30542); assay: Radioligand binding, displacement of [3H]-CCPA at hA1 AR in CHO cells; conditions: displacement of specific [3H]-CCPA binding, n = 3–6, mean ± SEM
T3 construct: expressed in transfected cells; host or cells: CHO cells
T3 sequence (P30542 1-326): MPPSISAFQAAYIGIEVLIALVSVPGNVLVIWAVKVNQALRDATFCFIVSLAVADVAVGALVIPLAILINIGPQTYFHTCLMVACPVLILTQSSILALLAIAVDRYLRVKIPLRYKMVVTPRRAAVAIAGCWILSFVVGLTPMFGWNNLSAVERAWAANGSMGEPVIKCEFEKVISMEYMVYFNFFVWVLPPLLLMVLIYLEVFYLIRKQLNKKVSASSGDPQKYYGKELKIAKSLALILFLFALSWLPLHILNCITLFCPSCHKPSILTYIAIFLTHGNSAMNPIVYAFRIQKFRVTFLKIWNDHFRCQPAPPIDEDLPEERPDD
Description: as §2, §3

[4] = molecular target: T4, hA2B AR (Homo sapiens, UniProt P29275); assay: Inhibition of NECA-stimulated adenylyl cyclase activity (cAMP) in CHO cells expressing hA2B AR; type: cell-based; conditions: mean ± SEM
T4 construct: expressed in transfected cells; host or cells: CHO cells
T4 sequence (P29275 1-332): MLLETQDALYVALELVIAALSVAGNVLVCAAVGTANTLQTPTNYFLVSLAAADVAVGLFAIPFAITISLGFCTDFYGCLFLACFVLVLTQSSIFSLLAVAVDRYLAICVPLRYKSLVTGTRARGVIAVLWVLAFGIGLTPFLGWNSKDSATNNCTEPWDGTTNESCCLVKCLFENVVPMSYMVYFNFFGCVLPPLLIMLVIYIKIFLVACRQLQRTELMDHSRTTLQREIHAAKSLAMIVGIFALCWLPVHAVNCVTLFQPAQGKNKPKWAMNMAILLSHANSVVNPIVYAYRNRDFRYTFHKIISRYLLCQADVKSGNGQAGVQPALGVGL
Description: Compounds 1–19 were evaluated for their binding affinity at hA1, hA2A, and hA3 ARs, stably transfected in Chinese hamster ovary (CHO) cells. […].
The binding affinity of the novel compounds was evaluated using radioligand competition experiments in CHO cells stably transfected with hA1 AR, hA2A AR, and hA3 AR subtypes. […]; The potency at hA2B AR, expressed on CHO cells, was determined by inhibition of NECA-stimulated adenylyl cyclase activity. […]
(§1) Binding data and concentration–response curves were fitted by a nonlinear regression with the Prism program (GraphPAD Prism 7 Software, San Diego, CA, USA). Each concentration was tested 3–5 times in duplicate and the Ki or IC50 (the concentration of antagonists that produces 50% inhibition of the agonist effect) values are given as the mean ± standard error (S.E.).

[5] = molecular target: T5, hA2A AR (Homo sapiens, UniProt P29274); assay: Inhibition of NECA-induced increase of cAMP in CHO cells expressing hA2A AR (GloSensor cAMP assay); type: cell-based; conditions: inhibition of NECA-stimulated adenylyl cyclase activity, mean ± standard error
T5 construct: expressed in transfected cells; host or cells: CHO cells
Description: Compound 18 was also tested to evaluate its antagonist behavior at the hA1 AR by assessing its ability to counteract NECA-induced decrease of cAMP accumulation.
The intrinsic activity of understudy compounds was evaluated through the GloSensor cAMP assay, as described previously. Briefly, cells stably expressing the hA1, hA2A, and hA2B ARs and the biosensor were incubated for 2 h at rt in equilibration medium containing 3% v/v GloSensor cAMP reagent stock solution, 10% FBS, and 87% CO2 independent medium. Afterward, cells were dispensed in the wells of a 384-well plate and the reference agonist NECA or the compounds, at different concentrations, were tested. The antagonist profile of compounds was evaluated by assessing their ability to counteract NECA-induced increase (A2A and A2B ARs) or decrease (A1 AR) of cAMP accumulation. Responses were expressed as percentage of the maximal relative luminescence units (RLU).
as §1

[6] = displacement of specific [3H]-NECA binding, CHO cells, mean ± SEM, read-out: hA2A Ki
[7] = hA2A AR, as listed in Table 3, read-out: pKi A2A (converted)

T1 sequence (P29274 whole entry): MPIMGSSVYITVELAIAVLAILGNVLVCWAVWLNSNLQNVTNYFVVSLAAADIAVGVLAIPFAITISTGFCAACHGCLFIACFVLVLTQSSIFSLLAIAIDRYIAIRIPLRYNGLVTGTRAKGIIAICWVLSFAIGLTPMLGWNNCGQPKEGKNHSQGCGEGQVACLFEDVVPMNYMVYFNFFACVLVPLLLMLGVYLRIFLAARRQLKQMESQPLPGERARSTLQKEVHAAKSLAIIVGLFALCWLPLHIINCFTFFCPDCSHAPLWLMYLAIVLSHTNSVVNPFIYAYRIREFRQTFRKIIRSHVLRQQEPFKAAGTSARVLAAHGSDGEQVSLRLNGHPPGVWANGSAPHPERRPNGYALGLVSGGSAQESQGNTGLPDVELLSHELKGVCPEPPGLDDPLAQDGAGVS
T5 sequence (P29274 whole entry): as above

| SMILES | Ki [1, 6] [nM] | Ki [1, 7] [nM] | Ki [2] [nM] | Ki [3] [nM] | IC50 [4] [nM] | IC50 [5] [nM] |
| --- | --- | --- | --- | --- | --- | --- |
| Nc1nc(-c2ccccc2)nc2sc(Cc3ccccc3)nc12 [compound 1, 2-Benzyl-5-phenylthiazolo[5,4-d]pyrimidin-7-amine] | 2.9 ± 0.04 | 2.82 | 26.6 ± 6 | 20 ± 4.3 | > 30000 | – |
| N#Cc1cccc(-c2nc(N)c3nc(Cc4ccccc4)sc3n2)c1 [compound 2, 3-(7-Amino-2-benzylthiazolo[5,4-d]pyrimidin-5-yl)benzonitrile] | 4.6 ± 0.9 | – | 76 ± 0.9 | 51.7 ± 11.7 | > 30000 | – |
| Nc1nc(-c2cccc(O)c2)nc2sc(Cc3ccccc3)nc12 [compound 3, 3-(7-Amino-2-benzylthiazolo[5,4-d]pyrimidin-5-yl)phenol] | 7.3 ± 1 | – | 104 ± 21.1 | 15.7 ± 3.4 | > 30000 | – |
| Nc1nc(-c2ccco2)nc2sc(Cc3ccccc3)nc12 [compound 4, 2-Benzyl-5-(furan-2-yl)thiazolo[5,4-d]pyrimidin-7-amine] | 1.1 ± 0.2 | 1.1 | 65.4 ± 12 | 15.5 ± 3.6 | 794 ± 196 | – |
| Cc1ccc(-c2nc(N)c3nc(Cc4ccccc4)sc3n2)o1 [compound 5, 2-Benzyl-5-(5-methylfuran-2-yl)thiazolo[5,4-d]pyrimidin-7-amine] | 0.8 ± 0.04 | 0.794 | 18.8 ± 1.9 | 6.8 ± 1.2 | 1100 ± 228 | 88 ± 21 |
| Nc1nc(-c2ccccc2)nc2sc(Cc3ccccc3Cl)nc12 [compound 6, 2-(2-Chlorobenzyl)-5-phenylthiazolo[5,4-d]pyrimidin-7-amine] | 0.4 ± 0.04 | 0.398 | 143 ± 0.2 | 2.8 ± 0.05 | > 30000 | – |
| N#Cc1cccc(-c2nc(N)c3nc(Cc4ccccc4Cl)sc3n2)c1 [compound 7, 3-(7-Amino-2-(2-chlorobenzyl)thiazolo[5,4-d]pyrimidin-5-yl)benzonitrile] | 6.3 ± 0.18 | – | 295.1 ± 0.6 | 72.8 ± 15 | 6785 ± 62 | – |
| Nc1nc(-c2ccco2)nc2sc(Cc3ccccc3Cl)nc12 [compound 8, 2-(2-Chlorobenzyl)-5-(furan-2-yl)thiazolo[5,4-d]pyrimidin-7-amine] | 0.2 ± 0.03 | 0.2 | 4786 ± 5.1 | 3.8 ± 0.6 | 1890 ± 175 | 39 ± 9 |
| Cc1ccc(-c2nc(N)c3nc(Cc4ccccc4Cl)sc3n2)o1 [compound 9, 2-(2-Chlorobenzyl)-5-(5-methylfuran-2-yl)thiazolo[5,4-d]pyrimidin-7-amine] | 0.07 ± 0.006 | 0.0708 | 8.5 ± 1.6 | 0.5 ± 0.1 | 8850 ± 1450 | 7.7 ± 1.3 |
| COc1ccccc1Cc1nc2c(N)nc(-c3ccccc3)nc2s1 [compound 10, 2-(2-Methoxybenzyl)-5-phenylthiazolo[5,4-d]pyrimidin-7-amine] | 0.7 ± 0.1 | – | 37.4 ± 1 | 4.5 ± 0.8 | > 30000 | 125 ± 33 |
| COc1ccccc1Cc1nc2c(N)nc(-c3cccc(C#N)c3)nc2s1 [compound 11, 3-(7-Amino-2-(2-methoxybenzyl)thiazolo[5,4-d]pyrimidin-5-yl)benzonitrile] | 2.4 ± 0.09 | – | 54.2 ± 1.2 | 28.4 ± 4 | 1540 ± 35 | – |
| COc1ccccc1Cc1nc2c(N)nc(-c3cccc(O)c3)nc2s1 [compound 12, 3-(7-Amino-2-(2-methoxybenzyl)thiazolo[5,4-d]pyrimidin-5-yl)phenol] | 1.9 ± 0.4 | – | 79.6 ± 2.3 | 10.2 ± 0.3 | 7420 ± 876 | – |
| COc1ccccc1Cc1nc2c(N)nc(-c3ccco3)nc2s1 [compound 13, 5-(Furan-2-yl)-2-(2-methoxybenzyl)thiazolo[5,4-d]pyrimidin-7-amine] | 0.2 ± 0.03 | – | 48.6 ± 2.4 | 2.4 ± 0.1 | 1540 ± 35 | 35 ± 8.5 |
| COc1ccccc1Cc1nc2c(N)nc(-c3ccc(C)o3)nc2s1 [compound 14, 2-(2-Methoxybenzyl)-5-(5-methylfuran-2-yl)thiazolo[5,4-d]pyrimidin-7-amine] | 2 ± 0.6 | – | 18.2 ± 5 | 11.5 ± 2.8 | 2420 ± 545 | – |
| Nc1nc(-c2ccccc2)nc2sc(Cc3ccccc3F)nc12 [compound 15, 2-(2-Fluorobenzyl)-5-phenylthiazolo[5,4-d]pyrimidin-7-amine] | 1.8 ± 0.6 | 1.78 | 72.1 ± 5.3 | 1.9 ± 0.05 | > 30000 | – |
| N#Cc1cccc(-c2nc(N)c3nc(Cc4ccccc4F)sc3n2)c1 [compound 16, 3-(7-Amino-2-(2-fluorobenzyl)thiazolo[5,4-d]pyrimidin-5-yl)benzonitrile] | 1.4 ± 0.3 | – | 95.5 ± 1.5 | 21.5 ± 5.1 | 1510 ± 121 | – |
| Nc1nc(-c2cccc(O)c2)nc2sc(Cc3ccccc3F)nc12 [compound 17, 3-(7-Amino-2-(2-fluorobenzyl)thiazolo[5,4-d]pyrimidin-5-yl)phenol] | – | – | 456 ± 15 | 0.5 ± 0.1 | 3240 ± 136 | – |
| Cc1ccc(-c2nc(N)c3nc(Cc4ccccc4F)sc3n2)o1 [compound 19, 2-(2-Fluorobenzyl)-5-(5-methylfuran-2-yl)thiazolo[5,4-d]pyrimidin-7-amine] | 0.26 ± 0.01 | 0.257 | 50.2 ± 9.2 | 5.7 ± 0.2 | 1690 ± 228 | 51 ± 12 |
